Test results reported in PubChem BioAssay AID1963985 (Molecular Pharmacology Branch, DTP, NCI, 2024).

Tested on: 252836-082-R-J2-PDC tumor spheroids, viability
Experiment: Anticancer human tumor 252836-082-R-J2-PDC patient-derived head and neck squamous cell carcinoma cell line growth inhibition [PI3K]
Details: spheroids with HUVEC and MSC; for IC50: curve of first compound; for viability, T/C: stronger effect = lower value; active means viability on the fitted dose curve at most 10% of control; inactive means the rest
In short: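 Agents were dosed from a top concentration near clinical Cmax (otherwise 10 microM) in half-log decrements, alone or combined with PI3K inhibitors. The spheroids contain tumor cells plus endothelial (HUVEC) and MSC stroma; viability is measured.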

[1] = second compound 0.0316 µM, first compound 0.0316 µM
[2] = second compound 0.0316 µM, first compound 0.1 µM
[3] = second compound 0.1 µM, first compound 0.0316 µM
[4] = second compound 0.1 µM, first compound 0.1 µM
[5] = second compound 0.316 µM, first compound 0.0316 µM
[6] = second compound 0.316 µM, first compound 0.1 µM
[7] = second compound 1 µM, first compound 0.0316 µM
[8] = second compound 1 µM, first compound 0.1 µM
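Further: spheroids exposed to agents for seven days before readout.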
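Wherever viability, T/C is given: percent of vehicle DMSO control viability so 100% = untreated growth.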

CC(=O)c1c(C)c2cnc(Nc3ccc(N4CCNCC4)cn3)nc2n(C2CCCC2)c1=O + CC(Nc1ncnc2nc[nH]c12)c1cc2cccc(Cl)c2c(=O)n1-c1ccccc1
> 100 nM: IC50 (second compound 0.0316 µM) | IC50 (second compound 0.1 µM) | IC50 (second compound 0.316 µM) | IC50 (second compound 1 µM) | IC50 (second compound 3.16 µM) | IC50 (second compound 10 µM)
inactive: viability, T/C (second compound 0.0316 µM, first compound 0.000316 µM) 99.4% | viability, T/C (second compound 0.0316 µM, first compound 0.001 µM) 92.6% | viability, T/C (second compound 0.0316 µM, first compound 0.00316 µM) 93% | viability, T/C (second compound 0.0316 µM, first compound 0.01 µM) 89.1% | viability, T/C [1] 91.8% | viability, T/C [2] 93.2% | viability, T/C (second compound 0.1 µM, first compound 0.000316 µM) 105% | viability, T/C (second compound 0.1 µM, first compound 0.001 µM) 89.6% | viability, T/C (second compound 0.1 µM, first compound 0.00316 µM) 76.6% | viability, T/C (second compound 0.1 µM, first compound 0.01 µM) 83.3% | viability, T/C [3] 83% | viability, T/C [4] 75.4% | viability, T/C (second compound 0.316 µM, first compound 0.000316 µM) 114% | viability, T/C (second compound 0.316 µM, first compound 0.001 µM) 91.4% | viability, T/C (second compound 0.316 µM, first compound 0.00316 µM) 86.9% | viability, T/C (second compound 0.316 µM, first compound 0.01 µM) 93.7% | viability, T/C [5] 88.7% | viability, T/C [6] 96.6% | viability, T/C (second compound 1 µM, first compound 0.000316 µM) 81.9% | viability, T/C (second compound 1 µM, first compound 0.001 µM) 72.4% | viability, T/C (second compound 1 µM, first compound 0.00316 µM) 76.8% | viability, T/C (second compound 1 µM, first compound 0.01 µM) 93.9% | viability, T/C [7] 79.8% | viability, T/C [8] 79.2% | viability, T/C (second compound 3.16 µM, first compound 0.000316 µM) 91.6% | viability, T/C (second compound 3.16 µM, first compound 0.001 µM) 87.9% | viability, T/C (second compound 3.16 µM, first compound 0.00316 µM) 66.1% | viability, T/C (second compound 3.16 µM, first compound 0.01 µM) 74.2% | viability, T/C (second compound 3.16 µM, first compound 0.0316 µM) 73.7% | viability, T/C (second compound 3.16 µM, first compound 0.1 µM) 71.6% | viability, T/C (second compound 10 µM, first compound 0.000316 µM) 57.5% | viability, T/C (second compound 10 µM, first compound 0.001 µM) 56.3% | viability, T/C (second compound 10 µM, first compound 0.00316 µM) 69.2% | viability, T/C (second compound 10 µM, first compound 0.01 µM) 61.1% | viability, T/C (second compound 10 µM, first compound 0.0316 µM) 71.4% | viability, T/C (second compound 10 µM, first compound 0.1 µM) 60.6%

CC(Cn1ccc(-c2ccc(C#N)c(Cl)c2)n1)NC(=O)c1cc(C(C)O)[nH]n1 (centres undefined) + CC(Nc1ccc2c(c1)OCCn1cc(N3C(=O)OCC3C(F)F)nc1-2)C(N)=O
< 31.6 nM: IC50 (second compound 1 µM)
> 10000 nM: IC50 (second compound 0.00316 µM) | IC50 (second compound 0.01 µM) | IC50 (second compound 0.0316 µM) | IC50 (second compound 0.1 µM) | IC50 (second compound 0.316 µM)
inactive: viability, T/C (second compound 0.00316 µM, first compound 0.0316 µM) 94.1% | viability, T/C (second compound 0.00316 µM, first compound 0.1 µM) 88.5% | viability, T/C (second compound 0.00316 µM, first compound 0.316 µM) 97.6% | viability, T/C (second compound 0.00316 µM, first compound 1 µM) 94.7% | viability, T/C (second compound 0.00316 µM, first compound 3.16 µM) 98.7% | viability, T/C (second compound 0.00316 µM, first compound 10 µM) 90.6% | viability, T/C (second compound 0.01 µM, first compound 0.0316 µM) 102% | viability, T/C (second compound 0.01 µM, first compound 0.1 µM) 87.6% | viability, T/C (second compound 0.01 µM, first compound 0.316 µM) 87.6% | viability, T/C (second compound 0.01 µM, first compound 1 µM) 106% | viability, T/C (second compound 0.01 µM, first compound 3.16 µM) 90.7% | viability, T/C (second compound 0.01 µM, first compound 10 µM) 88.8% | viability, T/C [1] 78.4% | viability, T/C [2] 82.8% | viability, T/C (second compound 0.0316 µM, first compound 0.316 µM) 86.1% | viability, T/C (second compound 0.0316 µM, first compound 1 µM) 74.8% | viability, T/C (second compound 0.0316 µM, first compound 3.16 µM) 78.3% | viability, T/C (second compound 0.0316 µM, first compound 10 µM) 87.9% | viability, T/C [3] 62.1% | viability, T/C [4] 63.4% | viability, T/C (second compound 0.1 µM, first compound 0.316 µM) 68.1% | viability, T/C (second compound 0.1 µM, first compound 1 µM) 66.1% | viability, T/C (second compound 0.1 µM, first compound 3.16 µM) 66.1% | viability, T/C (second compound 0.1 µM, first compound 10 µM) 65.8% | viability, T/C [5] 57.7% | viability, T/C [6] 57.8% | viability, T/C (second compound 0.316 µM, first compound 0.316 µM) 56.1% | viability, T/C (second compound 0.316 µM, first compound 1 µM) 56.8% | viability, T/C (second compound 0.316 µM, first compound 3.16 µM) 56.8% | viability, T/C (second compound 0.316 µM, first compound 10 µM) 46.5% | viability, T/C [7] 50.2% | viability, T/C [8] 47.3% | viability, T/C (second compound 1 µM, first compound 0.316 µM) 46.8% | viability, T/C (second compound 1 µM, first compound 1 µM) 45.3% | viability, T/C (second compound 1 µM, first compound 3.16 µM) 49.9% | viability, T/C (second compound 1 µM, first compound 10 µM) 47.3%
